Measured values published in ChEMBL document CHEMBL1128861 (Bioorg Med Chem Lett, 1995).

Experiments:
[1] = biological target: T1, 5-hydroxytryptamine receptor 2A (Rattus norvegicus, UniProt P14842); experiment: Antagonism of 5-HT2A receptor of rat tail artery; type: functional, tissue-based; details: read-out: pA2 (converted)
[2] = biological target: T1, 5-hydroxytryptamine receptor 2A; experiment: Binding affinity towards 5-HT2A receptor of rat tail artery; type: tissue-based
[3] = biological target: Serotonin 3 (5-HT3) receptor (Homo sapiens) (UniProt P46098+A5X5Y0+O95264+Q70Z44+Q8WXA8); experiment: Binding affinity against 5-hydroxytryptamine 3 receptor of guinea pig ileum; type: tissue-based; details: Cavia porcellus, target entry is the homologue from another species
[4] = biological target: Adrenergic receptor alpha-1 (Rattus norvegicus) (UniProt P15823+P23944+P43140); experiment: Affinity for Alpha-1 adrenergic receptor of rat aorta; type: tissue-based
[5] = biological target: Histamine H1 receptor (Cavia porcellus) (UniProt P31389); experiment: Affinity for H1 histamine receptor of guinea pig ileum; type: tissue-based
[6] = biological target: Muscarinic acetylcholine receptor M3 (Cavia porcellus) (UniProt Q8VH26); experiment: Affinity for ileal muscarinic M3 receptor of guinea pig ileum; type: tissue-based
[7] = biological target: 5-hydroxytryptamine receptor 2A (Rattus norvegicus) (UniProt P14842); experiment: Affinity for 5-HT2A receptor of rat tail artery; type: tissue-based
[8] = biological target: T2, Adrenergic receptor alpha-1 (Rattus norvegicus, UniProt P15823+P23944+P43140); experiment: Antagonism against Alpha-1 adrenergic receptor of rat aorta; type: functional, tissue-based
T2 sequence (P15823 whole entry): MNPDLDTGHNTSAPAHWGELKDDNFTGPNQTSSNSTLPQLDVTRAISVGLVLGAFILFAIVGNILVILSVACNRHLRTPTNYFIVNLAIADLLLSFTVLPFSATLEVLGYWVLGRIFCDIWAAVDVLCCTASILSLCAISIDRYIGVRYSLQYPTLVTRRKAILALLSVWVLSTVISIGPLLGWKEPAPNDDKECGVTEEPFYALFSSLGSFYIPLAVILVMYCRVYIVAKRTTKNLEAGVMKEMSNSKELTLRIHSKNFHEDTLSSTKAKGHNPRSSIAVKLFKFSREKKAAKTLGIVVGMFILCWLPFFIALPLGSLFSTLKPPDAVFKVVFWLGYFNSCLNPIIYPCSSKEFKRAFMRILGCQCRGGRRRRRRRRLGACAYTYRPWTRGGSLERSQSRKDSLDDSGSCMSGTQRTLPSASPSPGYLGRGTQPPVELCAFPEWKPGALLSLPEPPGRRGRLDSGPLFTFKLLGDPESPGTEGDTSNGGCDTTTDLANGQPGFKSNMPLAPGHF
T2 sequence (P23944 whole entry): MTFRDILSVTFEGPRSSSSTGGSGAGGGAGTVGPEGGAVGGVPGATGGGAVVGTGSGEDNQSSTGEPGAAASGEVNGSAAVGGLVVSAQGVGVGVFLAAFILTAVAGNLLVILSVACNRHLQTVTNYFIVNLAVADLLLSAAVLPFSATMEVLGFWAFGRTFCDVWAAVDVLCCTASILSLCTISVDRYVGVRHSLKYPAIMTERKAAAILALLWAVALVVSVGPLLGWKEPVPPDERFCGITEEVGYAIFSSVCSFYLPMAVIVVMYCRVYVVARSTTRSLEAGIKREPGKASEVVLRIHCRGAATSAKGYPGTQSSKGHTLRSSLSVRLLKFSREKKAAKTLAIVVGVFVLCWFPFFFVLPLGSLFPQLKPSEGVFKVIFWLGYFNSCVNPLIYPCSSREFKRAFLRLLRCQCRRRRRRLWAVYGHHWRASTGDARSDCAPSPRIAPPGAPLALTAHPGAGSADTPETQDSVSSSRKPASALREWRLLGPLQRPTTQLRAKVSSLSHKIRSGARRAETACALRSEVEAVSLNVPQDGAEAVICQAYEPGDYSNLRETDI
T2 sequence (P43140 whole entry): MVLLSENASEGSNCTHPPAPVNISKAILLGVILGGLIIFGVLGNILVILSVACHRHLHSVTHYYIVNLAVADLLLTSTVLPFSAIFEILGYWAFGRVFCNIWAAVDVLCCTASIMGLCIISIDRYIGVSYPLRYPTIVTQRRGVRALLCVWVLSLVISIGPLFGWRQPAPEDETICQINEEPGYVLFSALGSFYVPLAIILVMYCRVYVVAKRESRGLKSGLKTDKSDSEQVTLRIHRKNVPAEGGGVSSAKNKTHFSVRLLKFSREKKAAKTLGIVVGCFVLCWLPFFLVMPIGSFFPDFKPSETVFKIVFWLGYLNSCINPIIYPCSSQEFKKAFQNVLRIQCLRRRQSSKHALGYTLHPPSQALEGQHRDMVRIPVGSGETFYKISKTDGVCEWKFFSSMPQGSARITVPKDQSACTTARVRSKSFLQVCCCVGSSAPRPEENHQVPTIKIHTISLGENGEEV

Histamine H1 receptor = Histamine H1 receptor (Cavia porcellus, UniProt P31389); experiment: Antagonism against H1 histamine receptor of guinea pig ileum; type: functional, tissue-based; details: read-out: pA2 (converted)
[9] = biological target: Muscarinic acetylcholine receptor M3 (Cavia porcellus) (UniProt Q8VH26); experiment: Binding affinity against ileal muscarinic M3 receptor of guinea pig ileum; type: tissue-based
[10] = biological target: 5-hydroxytryptamine receptor 2A (Rattus norvegicus) (UniProt P14842); experiment: Binding affinity against 5-HT2A receptor of rat tail artery; type: tissue-based

Muscarinic acetylcholine receptor M3 (Cavia porcellus), sequence (Q8VH26 1-587): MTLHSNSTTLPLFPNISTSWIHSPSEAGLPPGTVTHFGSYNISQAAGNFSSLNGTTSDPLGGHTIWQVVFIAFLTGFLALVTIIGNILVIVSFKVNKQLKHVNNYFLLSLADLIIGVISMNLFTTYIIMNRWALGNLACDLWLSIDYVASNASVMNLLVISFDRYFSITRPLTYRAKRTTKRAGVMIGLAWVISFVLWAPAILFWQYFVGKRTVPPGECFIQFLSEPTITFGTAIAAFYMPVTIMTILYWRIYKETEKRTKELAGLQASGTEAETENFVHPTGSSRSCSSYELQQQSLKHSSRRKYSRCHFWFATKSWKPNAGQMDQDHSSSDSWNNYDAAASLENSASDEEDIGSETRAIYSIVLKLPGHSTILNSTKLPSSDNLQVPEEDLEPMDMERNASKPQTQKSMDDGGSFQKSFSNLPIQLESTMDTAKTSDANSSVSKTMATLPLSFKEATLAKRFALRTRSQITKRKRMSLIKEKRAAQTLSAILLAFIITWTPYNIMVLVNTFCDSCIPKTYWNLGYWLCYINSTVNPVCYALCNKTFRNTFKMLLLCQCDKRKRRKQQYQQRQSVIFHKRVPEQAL
T1 sequence (P14842 whole entry): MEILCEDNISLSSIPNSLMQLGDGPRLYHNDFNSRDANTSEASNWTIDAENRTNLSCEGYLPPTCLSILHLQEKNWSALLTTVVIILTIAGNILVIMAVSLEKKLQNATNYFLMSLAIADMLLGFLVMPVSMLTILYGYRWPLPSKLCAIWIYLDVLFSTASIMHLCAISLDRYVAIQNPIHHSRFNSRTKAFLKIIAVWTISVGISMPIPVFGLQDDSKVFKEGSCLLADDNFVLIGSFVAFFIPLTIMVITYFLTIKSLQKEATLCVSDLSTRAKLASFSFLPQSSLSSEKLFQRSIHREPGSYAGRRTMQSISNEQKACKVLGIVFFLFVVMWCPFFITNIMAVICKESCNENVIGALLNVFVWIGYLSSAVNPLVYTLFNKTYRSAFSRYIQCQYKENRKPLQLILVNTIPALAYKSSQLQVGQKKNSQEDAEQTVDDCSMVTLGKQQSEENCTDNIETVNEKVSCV
5-hydroxytryptamine receptor 2A (Rattus norvegicus), sequence (P14842 whole entry): as above
Histamine H1 receptor (Cavia porcellus), sequence (P31389 whole entry): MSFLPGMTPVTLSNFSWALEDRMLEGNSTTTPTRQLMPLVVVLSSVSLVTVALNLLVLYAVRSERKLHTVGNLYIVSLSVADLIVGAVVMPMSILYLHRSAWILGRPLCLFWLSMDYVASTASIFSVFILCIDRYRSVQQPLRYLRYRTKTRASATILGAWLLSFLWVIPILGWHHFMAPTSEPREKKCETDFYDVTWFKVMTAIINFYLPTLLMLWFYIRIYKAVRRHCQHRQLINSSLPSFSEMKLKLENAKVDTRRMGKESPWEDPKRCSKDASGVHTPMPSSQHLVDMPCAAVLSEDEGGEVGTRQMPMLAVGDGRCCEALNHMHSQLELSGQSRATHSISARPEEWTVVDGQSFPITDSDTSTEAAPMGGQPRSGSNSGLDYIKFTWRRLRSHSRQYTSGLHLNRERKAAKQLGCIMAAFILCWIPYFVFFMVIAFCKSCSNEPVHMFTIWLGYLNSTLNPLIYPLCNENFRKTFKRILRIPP
Histamine H1 receptor, sequence (P31389 whole entry): as above

| Structure (SMILES) | Kb [1] | pKB [3] | pKB [4] | pKB [5] | pKB [6] | pKB [7] | other results |
| --- | --- | --- | --- | --- | --- | --- | --- |
| O=C(c1ccc(F)cc1)C1CCNCC1 | 525 nM |  |  |  |  |  | Ki [2]: 398 nM |
| Cn1c2c(c3ccccc31)C(=O)C(CN1CCC(c3ccccc3)CC1)CC2 (configuration not stated) |  | < 5.2 | 7.58 | 6.4 | 4.97 | 8.43 |  |
| Cn1c2c(c3ccccc31)C(=O)C(CN1CCC(C(=O)c3ccc(F)cc3)CC1)CC2 (racemic) [listing 1 of 2 here] |  | < 5.7 | 7.96 | 6.92 | 5.19 |  |  |
| Cn1c2c(c3ccccc31)C(=O)C(CN1CCC(C(=O)c3ccc(F)cc3)CC1)CC2 (stereo in doubt; (-)-13) [listing 1 of 2 here] | 0.437 nM |  |  |  |  |  |  |
| COc1ccc2[nH]cc(C3=CCN(CC4CCc5c(c6ccccc6n5C)C4=O)CC3)c2c1 (configuration not stated) |  |  | 6.59 | 6.31 |  | 6.09 |  |
| Cn1c2c(c3ccccc31)C(=O)C(CN1CCN(c3ccccc3F)CC1)CC2 (configuration not stated) |  | < 5.2 |  | 6.19 | 4.72 | 7.8 | pA2 [8]: 8.75 |
| Cn1c2c(c3ccccc31)C(=O)C(CN1CCC(=C(c3ccc(F)cc3)c3ccc(F)cc3)CC1)CC2 (configuration not stated) |  |  | 5.81 | 7.41 | 5.7 | 6.3 | pD2 [3]: 6.08 |
| Cn1c2c(c3ccccc31)C(=O)C(CN1CCC(C(=O)c3ccc(F)cc3)CC1)CC2 (racemic) [listing 2 of 2 here] | 0.617 nM |  |  |  |  |  |  |
| Cn1c2c(c3ccccc31)C(=O)C(CN1CCCCC1)CC2 (configuration not stated) |  | < 5.3 | 6.11 | 5.69 | 4.98 | 5.98 |  |
| Cn1c2c(c3ccccc31)C(=O)C(CNCc1ncc[nH]1)CC2 (configuration not stated) |  |  |  |  |  | 6.59 |  |
| Cn1c2c(c3ccccc31)C(=O)C(CN1CCC(C(=O)c3ccc(F)cc3)CC1)CC2 (stereo in doubt; (-)-13) [listing 2 of 2 here] |  |  | 8.08 | 6.74 |  |  |  |
| Cn1c2c(c3ccccc31)C(=O)C(CN1CCC(C(=O)c3ccccc3)CC1)CC2 (configuration not stated) | 4.57 nM | < 5.5 | 7.36 | 6.53 | 5.01 |  |  |
| Cn1c2c(c3ccccc31)C(=O)C(CNCCc1c[nH]cn1)CC2 (configuration not stated) |  |  |  |  |  | 6.75 |  |
| Cn1c2c(c3ccccc31)C(=O)C(CN1CCC(C(=O)c3ccc(F)cc3)CC1)CC2 (single isomer, unassigned; (+)) [listing 1 of 2 here] |  |  | 7.28 | 6.82 |  |  |  |
| Cn1c2c(c3ccccc31)C(=O)C(CN1CCN(c3ccc(F)cc3)CC1)CC2 (configuration not stated) | 2.51 nM | < 5.5 | 7.8 | 6.74 | 5.55 |  |  |
| O=C(c1ccc(F)cc1)C1CCN(CCn2c(=O)[nH]c3ccccc3c2=O)CC1 [KETANSERIN] |  |  |  |  | 4.18 |  | pA2 [8]: 8.09; Kb (Histamine H1 receptor): 1.41 nM |
| Cn1c2c(c3ccccc31)C(=O)C(CN1CC=C(c3c[nH]c4ccc(F)cc34)CC1)CC2 (configuration not stated) |  |  | 6.49 | 6.6 |  | 7.22 |  |
| Cc1nccn1CC1CCc2c(c3ccccc3n2C)C1=O (configuration not stated) |  |  | 5.29 | 4.37 |  |  | pKB [9]: 4.72; pKB [10]: 4.66 |
| CN(CCn1c(=O)[nH]c2ccccc2c1=O)CC1CCc2c(c3ccccc3n2C)C1=O (configuration not stated) |  | < 5.7 | 6.45 | 5.9 | 4.68 | 5.5 |  |
| Cn1c2c(c3ccccc31)C(=O)C(CNc1ncc[nH]1)CC2 (configuration not stated) |  |  |  |  |  | 6.73 |  |
| Cn1c2c(c3ccccc31)C(=O)C(CN1CC=C(c3c[nH]c4ccccc34)CC1)CC2 (configuration not stated) | 6.31 nM |  | 7.58 | 6.62 |  |  |  |
| Cn1c2c(c3ccccc31)C(=O)C(CN1CCC(C(=O)c3ccc(F)cc3)CC1)CC2 (single isomer, unassigned; (+)) [listing 2 of 2 here] | 64.6 nM |  |  |  |  |  |  |
